Measured values as given in PubChem BioAssay AID1918994 (Molecular Pharmacology Branch, DTP, NCI, 2023).
pIC50: −log10 of the molar value.

System: 292921-168-R-J2-PDC complex spheroid growth
Assay: Anticancer human tumor 292921-168-R-J2-PDC patient-derived pancreatic carcinoma cell line growth inhibition [AhR]
Settings: for pIC50: curve of first compound; for viability, T/C: stronger effect = lower value; active = viability on the fitted dose curve at most 10% of control; inactive = the rest
Method in brief: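 Spheroids combined tumor cells with HUVEC endothelial cells and human MSCs as stroma. AhR antagonists were paired with standard or investigational drugs, each dosed in half-log steps down from near clinical Cmax, or from 10 microM where Cmax was unknown.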
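Also: spheroids exposed to compounds for seven days after three days of growth.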

COc1cc(C2c3cc4c(cc3C(OC3OC5COC(C)OC5C(O)C3O)C3COC(=O)C23)OCO4)cc(OC)c1O (stereo not given) + Cc1ccccc1N=Nc1ccc(NC(=O)c2ccnn2C)c(C)c1
6.45: pIC50 (second compound 1 µM)
6.98: pIC50 (second compound 10 µM)
6.40: pIC50 (second compound 0.1 µM)
6.74: pIC50 (second compound 3.16 µM)
inactive: viability, T/C (second compound 0.1 µM, first compound 0.0316 µM) 92.5% | viability, T/C (second compound 0.1 µM, first compound 0.1 µM) 85.8% | viability, T/C (second compound 0.1 µM, first compound 0.316 µM) 51.6% | viability, T/C (second compound 0.1 µM, first compound 1 µM) 30.8% | viability, T/C (second compound 0.1 µM, first compound 3.16 µM) 18% | viability, T/C (second compound 0.1 µM, first compound 10 µM) 10.8% | viability, T/C (second compound 0.316 µM, first compound 0.0316 µM) 86.3% | viability, T/C (second compound 0.316 µM, first compound 0.1 µM) 71% | viability, T/C (second compound 0.316 µM, first compound 0.316 µM) 58.7% | viability, T/C (second compound 0.316 µM, first compound 1 µM) 29.9% | viability, T/C (second compound 0.316 µM, first compound 3.16 µM) 14.8% | viability, T/C (second compound 0.316 µM, first compound 10 µM) 11.7% | viability, T/C (second compound 1 µM, first compound 0.0316 µM) 75.6% | viability, T/C (second compound 1 µM, first compound 0.1 µM) 72.2% | viability, T/C (second compound 1 µM, first compound 0.316 µM) 52.3% | viability, T/C (second compound 1 µM, first compound 1 µM) 26.3% | viability, T/C (second compound 1 µM, first compound 3.16 µM) 19.2% | viability, T/C (second compound 1 µM, first compound 10 µM) 10.9% | viability, T/C (second compound 3.16 µM, first compound 0.0316 µM) 63.4% | viability, T/C (second compound 3.16 µM, first compound 0.1 µM) 60.8% | viability, T/C (second compound 3.16 µM, first compound 0.316 µM) 40.5% | viability, T/C (second compound 3.16 µM, first compound 1 µM) 25.5% | viability, T/C (second compound 3.16 µM, first compound 3.16 µM) 16.4% | viability, T/C (second compound 3.16 µM, first compound 10 µM) 9.21% | viability, T/C (second compound 10 µM, first compound 0.0316 µM) 60.8% | viability, T/C (second compound 10 µM, first compound 0.1 µM) 52.7% | viability, T/C (second compound 10 µM, first compound 0.316 µM) 27.2% | viability, T/C (second compound 10 µM, first compound 1 µM) 23.3% | viability, T/C (second compound 10 µM, first compound 3.16 µM) 18.9% | viability, T/C (second compound 10 µM, first compound 10 µM) 11.1%
6.39: pIC50 (second compound 0.316 µM)
